The results in this text go back to the supplement of paper PMC11208160.
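Further: IS621 recombinase and bridge RNA in Escherichia coli cells.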

This series can be described thus: recombinant barcode read abundance after kanamycin selection (control-corrected) (log10(CPM+1)); higher = more efficient recombination; sequences stand for … in AGTGCAGAGAAAATCGGCCAGTTTTCTCTGCCTGCAGTCCGCATGCCGT…AGATTTATGCAGCGGACTGCCTTTCTCCCAAAGTGATAAACCGGACAGTATCATGGACCGGTTTTCCCGGTAATCCGTATTTGCAAGGTTGGTTTCACT; site = the 11-nt target. A digest of the protocol:
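The screen was pooled in E. coli and paired targets with IS621 bridge RNA target-binding loops. Recombination efficiency is taken from barcode counts per million at recombinant junctions, averaged and adjusted against the control. Values, in the form log10(CPM+1), come from duplicate plating on chloramphenicol/ampicillin LB agar or on chloramphenicol/ampicillin/kanamycin with 0.1 mM IPTG.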
In the case of “GGCACTGCTTGGGTTCTAACCTGTTGCCT (site GGCACCGCTAG)”, the “recombinant barcode read abundance (log10)” value was 0.123.
With “GGCACTGCTTGGGTTCTAACCTGTTGCCT (site GGCACGGCTAG)” the figure was 0.189; with “GGCACTGCTTGGGTTCTAACCTGTTGCCT (site GGCACTGCTAG)”, 0.34.
Consider “GGCAGATCTTGGGTTCTAACCTGTTGCTT (site GGCAGATCTAA)”, for which the “recombinant barcode read abundance (log10)” value turned out to be 0.193.
In the case of “GGCAGATCTTGGGTTCTAACCTGTTGCTT (site GGCAGCTCTAA)”, the “recombinant barcode read abundance (log10)” value came out at 0.043.
The result for “GGCAGATCTTGGGTTCTAACCTGTTGCTT (site GGCAGGTCTAA)” reads 0.0248; that for “GGCAGATCTTGGGTTCTAACCTGTTGCTT (site GGCAGTTCTAA)”, 0.9.
For the sequence “GGCAGTCCTTGGGTTCTAACCTGTTGCCG (site GGCAGACCTAG)”, the “recombinant barcode read abundance (log10)” value amounted to 0.169.
Consider “GGCAGTCCTTGGGTTCTAACCTGTTGCCG (site GGCAGTCCTCG)”, for which the “recombinant barcode read abundance (log10)” value turned out to be 0.364.
For the sequence “GGCAGTCCTTGGGTTCTAACCTGTTGCTT (site GGCAGTCCTAA)”, the “recombinant barcode read abundance (log10)” value came out at 0.336.
As for “GGCAGTCCTTGGGTTCTAACCTGTTGCTT (site GGCAGTCCTAG)”, the “recombinant barcode read abundance (log10)” value was determined as 0.252.
“GGCCGGCCTTGGGTTCTAACCTGTTGCCT (site GGCCGGACTAG)”: the “recombinant barcode read abundance (log10)” value is 0.0681.
The result for “GGCCGGCCTTGGGTTCTAACCTGTTGCCT (site GGCCGGCCTAG)” reads 0.128.
Turning to “GGCCGGCCTTGGGTTCTAACCTGTTGCCT (site GGCCGGGCTAG)”, the “recombinant barcode read abundance (log10)” value amounted to 1.02.
Regarding “GGCCGGCCTTGGGTTCTAACCTGTTGCCT (site GGCCGGTCTAG)”, the “recombinant barcode read abundance (log10)” value is 0.191.
For “GGCCGGTCTTGGGTTCTAACCTGTTGCCT (site GGCCGGACTAG)”, the “recombinant barcode read abundance (log10)” value came to 0.
In the case of “GGCCGGTCTTGGGTTCTAACCTGTTGCCT (site GGCCGGCCTAG)”, the “recombinant barcode read abundance (log10)” value turned out to be 0.248.
Turning to “GGCCGGTCTTGGGTTCTAACCTGTTGCCT (site GGCCGGGCTAG)”, the “recombinant barcode read abundance (log10)” value was found to be 0.0483.
Take “GGCCGGTCTTGGGTTCTAACCTGTTGCCT (site GGCCGGTCTAG)”: the “recombinant barcode read abundance (log10)” value was 1.78.
“GGCGTAGCTTGGGTTCTAACCTGTTGCCT (site GACGTAGCTAG)”: the “recombinant barcode read abundance (log10)” value stood at 0.416.
In the case of “GGCGTAGCTTGGGTTCTAACCTGTTGCCT (site GCCGTAGCTAG)”, the “recombinant barcode read abundance (log10)” value stood at 0.624.
As to “GGCGTAGCTTGGGTTCTAACCTGTTGCCT (site GGCGTAGCTAG)”, the “recombinant barcode read abundance (log10)” value is 2.37.
With “GGCGTAGCTTGGGTTCTAACCTGTTGCCT (site GTCGTAGCTAG)” the figure was 0.227; with “GGCTCCTCTTGGGTTCTAACCTGTTGCCT (site AGCTCCTCTAG)”, 0.849.
Consider “GGCTCCTCTTGGGTTCTAACCTGTTGCCT (site CGCTCCTCTAG)”, for which the “recombinant barcode read abundance (log10)” value was 0.0966.
On to “GGCTCCTCTTGGGTTCTAACCTGTTGCCT (site GGCTCCTCTAG)”, for which the “recombinant barcode read abundance (log10)” value came to 0.733.
In the case of “GGCTCCTCTTGGGTTCTAACCTGTTGCCT (site TGCTCCTCTAG)”, the “recombinant barcode read abundance (log10)” value was found to be 0.0949.
As to “GGCTTACCTTGGGTTCTAACCTGTTGCCT (site AGCTTACCTAG)”, the “recombinant barcode read abundance (log10)” value came to 0.0239.
On to “GGCTTACCTTGGGTTCTAACCTGTTGCCT (site CGCTTACCTAG)”, for which the “recombinant barcode read abundance (log10)” value turned out to be 0.0687.
Turning to “GGCTTACCTTGGGTTCTAACCTGTTGCCT (site GGCTTACCTAG)”, the “recombinant barcode read abundance (log10)” value amounted to 0.556.
As to “GGCTTACCTTGGGTTCTAACCTGTTGCCT (site TGCTTACCTAG)”, the “recombinant barcode read abundance (log10)” value is 0.395.
With “GGCTTGTCTTGGGTTCTAACCTGTTGCCT (site GGCATGTCTAG)”, the “recombinant barcode read abundance (log10)” value is 0.0663.
On to “GGCTTGTCTTGGGTTCTAACCTGTTGCCT (site GGCTTGTCTAG)”, for which the “recombinant barcode read abundance (log10)” value is 0.655.
With “GGGAACGCTTGGGTTCTAACCTGTTGCCT (site GGGAACGCTAG)” the figure was 2.85; with “GGGAACGCTTGGGTTCTAACCTGTTGCCT (site GGGAATGCTAG)”, 0.0432.
The result for “GGGACATCTTGGGTTCTAACCTGTTGCCT (site GGGACATCTAG)” reads 0.987.
Turning to “GGGACATCTTGGGTTCTAACCTGTTGCCT (site GGGGCATCTAG)”, the “recombinant barcode read abundance (log10)” value worked out at 0.015.
For “GGGACCACTTGGGTTCTAACCTGTTGCTA (site GGGACCACTTA)”, the “recombinant barcode read abundance (log10)” value is 1.77.
Take “GGGACCACTTGGGTTCTAACCTGTTGCTA (site TTCGGACCTCC)”: the “recombinant barcode read abundance (log10)” value was found to be 0.0578.
